Molecular target: T1, PaPabC (Pseudomonas aeruginosa, UniProt Q9HZN6)
T1 construct: gene pabC; full length (271 residues), N-terminal His6 tag with TEV site kept (not cleaved), modified pET15b, E. coli BL21(DE3) Gold; homodimer, about 50 kDa
T1 sequence (Q9HZN6 1-271): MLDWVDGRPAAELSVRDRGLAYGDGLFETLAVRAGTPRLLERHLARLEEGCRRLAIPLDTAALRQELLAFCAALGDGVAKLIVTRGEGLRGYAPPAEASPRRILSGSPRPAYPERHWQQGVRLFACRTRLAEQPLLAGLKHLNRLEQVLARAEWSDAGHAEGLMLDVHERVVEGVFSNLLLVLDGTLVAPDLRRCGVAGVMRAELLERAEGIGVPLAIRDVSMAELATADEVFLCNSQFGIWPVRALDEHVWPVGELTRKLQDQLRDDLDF
Assay: X-ray crystal structure ([…] Å), omit map
Format: binding
Conditions: covalent, Schiff base with Lys140; Tyr92 of partner subunit contacts PLP O3; crystallised with 0.1 mM PLP and 10 mM PABA, pH 6.5

SMILES: Cc1ncc(COP(=O)(O)O)c(C=O)c1O [PLP]
- X-ray crystal structure (1.75 Å), omit map: The presence of the PLP cofactor covalently bound to Lys140 was confirmed
